Experimental findings from ChEMBL document CHEMBL1687880, “Synthesis of cell-permeable stapled peptide dual inhibitors of the p53-Mdm2/Mdmx interactions via photoinduced cycloaddition” (Bioorg Med Chem Lett, 2011) are described below.

Activity calls are given as the source filed them. The calls are words filed in the database; no cut-off is given here. Non-standard residues stand in square brackets, D forms with d. Residues, ends and D or L forms follow the SMILES beside them. *: point of attachment. Tetrazole5CO(2-(4-MeOPh)) = COc1ccc(-n2nnc(C(=O)*)n2)cc1; Trp(6-Cl) = N[C@@H](Cc1c[nH]c2cc(Cl)ccc12)C(=O)O; X1 = COc1ccc(N2N=C(C(=O)*)CC2C(N)=O)cc1; Methacryloyl = C=C(C)C(=O)*

In the first data set the test system is U2OS. Description: Induction of p53-dependent luciferase activity in human U2OS cells at 20 uM. The format is functional, cell-based.
Take `COc1ccc(N2N=C(C(=O)NCCCC[C@H](NC(=O)[C@H](CC(C)C)NC(=O)[C@H](CCC(N)=O)NC(=O)[C@H](CCCNC(=N)N)NC(=O)[C@H](Cc3c[nH]c4ccccc34)NC(=O)[C@H](Cc3ccc(O)cc3)NC(=O)[C@H](CCCNC(=N)N)NC(=O)[C@H](CCCCNC(C)=O)NC(=O)[C@H](Cc3ccccc3)NC(=O)[C@@H](NC(=O)[C@H](CC(C)C)NC(C)=O)[C@@H](C)O)C(=O)N[C@@H](CO)C(N)=O)CC2C(N)=O)cc1` (some centres not stated) (Ac-LTFK(Ac)RYWRQLK(X1)S-NH2): the outcome was inactive.
In the case of Ac-LTFEHYWAQLTS-NH2, the outcome was inactive.

A further data set deals with U2OS. As to the kind of experiment: Drug uptake in human U2OS cells at 20 uM after 4 hrs by fluorescence microscopy. It is filed as ADME, cell-based.
Turning to `C=C(C)C(=O)NCCCC[C@H](NC(=O)[C@H](Cc1ccccc1)NC(=O)[C@@H](NC(=O)[C@H](CC(C)C)NC(C)=O)[C@@H](C)O)C(=O)N[C@@H](Cc1cnc[nH]1)C(=O)N[C@@H](Cc1ccc(O)cc1)C(=O)N[C@@H](Cc1c[nH]c2ccccc12)C(=O)N[C@@H](C)C(=O)N[C@@H](CCCN=C(N)N)C(=O)N[C@@H](CC(C)C)C(=O)N[C@@H](CCCCNC(=O)c1nnn(-c2ccc(OC)cc2)n1)C(=O)N[C@@H](CO)C(N)=O`, the Drug uptake result is “Active”.
Still for that read-out and setting: with `C=C(C)C(=O)NCCCC[C@H](NC(=O)[C@H](Cc1ccccc1)NC(=O)[C@@H](NC(=O)[C@H](CC(C)C)NC(C)=O)[C@@H](C)O)C(=O)N[C@@H](Cc1cnc[nH]1)C(=O)N[C@@H](Cc1ccc(O)cc1)C(=O)N[C@@H](Cc1c[nH]c2ccccc12)C(=O)N[C@@H](CCCN=C(N)N)C(=O)N[C@@H](CCC(N)=O)C(=O)N[C@@H](CC(C)C)C(=O)N[C@@H](CCCCNC(=O)c1nnn(-c2ccc(OC)cc2)n1)C(=O)N[C@@H](CO)C(N)=O` the entry was “Active”; with `COc1ccc(N2N=C(C(=O)NCCCC[C@H](NC(=O)[C@H](CC(C)C)NC(=O)[C@H](CCC(N)=O)NC(=O)[C@H](CCCNC(=N)N)NC(=O)[C@H](Cc3c[nH]c4ccccc34)NC(=O)[C@H](Cc3ccc(O)cc3)NC(=O)[C@H](CCCNC(=N)N)NC(=O)[C@H](CCCCNC(C)=O)NC(=O)[C@H](Cc3ccccc3)NC(=O)[C@@H](NC(=O)[C@H](CC(C)C)NC(C)=O)[C@@H](C)O)C(=O)N[C@@H](CO)C(N)=O)CC2C(N)=O)cc1` (some centres not stated) (Ac-LTFK(Ac)RYWRQLK(X1)S-NH2), “Active”.
Still for that read-out and setting: the result for `C=C(C)C(=O)NCCCC[C@H](NC(=O)[C@H](Cc1ccccc1)NC(=O)[C@@H](NC(=O)[C@H](CC(C)C)NC(C)=O)[C@@H](C)O)C(=O)N[C@@H](CCCN=C(N)N)C(=O)N[C@@H](Cc1ccc(O)cc1)C(=O)N[C@@H](Cc1c[nH]c2ccccc12)C(=O)N[C@@H](C)C(=O)N[C@@H](CCCN=C(N)N)C(=O)N[C@@H](CC(C)C)C(=O)N[C@@H](CCCCNC(=O)c1nnn(-c2ccc(OC)cc2)n1)C(=O)N[C@@H](CO)C(N)=O` (Ac-LTFK(Methacryloyl)RYWARLK(Tetrazole5CO(2-(4-MeOPh)))S-NH2) reads “Active”; that for `C=C(C)C(=O)NCCCC[C@H](NC(=O)[C@H](Cc1ccccc1)NC(=O)[C@@H](NC(=O)[C@H](CC(C)C)NC(C)=O)[C@@H](C)O)C(=O)N[C@@H](CCCNC(=N)N)C(=O)N[C@@H](Cc1ccc(O)cc1)C(=O)N[C@@H](Cc1c[nH]c2ccccc12)C(=O)N[C@@H](CCCNC(=N)N)C(=O)N[C@@H](CCC(N)=O)C(=O)N[C@@H](CC(C)C)C(=O)N[C@@H](CCCCNC(=O)c1nnn(-c2ccc(OC)cc2)n1)C(=O)N[C@@H](CO)C(N)=O` (Ac-LTFK(Methacryloyl)RYWRQLK(Tetrazole5CO(2-(4-MeOPh)))S-NH2), “Active”.
Take `C=C(C)C(=O)NCCCC[C@H](NC(=O)[C@H](Cc1ccccc1)NC(=O)[C@@H](NC(=O)[C@H](CC(C)C)NC(C)=O)[C@@H](C)O)C(=O)N[C@@H](CCCN=C(N)N)C(=O)N[C@@H](Cc1ccc(O)cc1)C(=O)N[C@@H](Cc1c[nH]c2cc(Cl)ccc12)C(=O)N[C@@H](CCCN=C(N)N)C(=O)N[C@@H](CCC(N)=O)C(=O)N[C@@H](CC(C)C)C(=O)N[C@@H](CCCCNC(=O)c1nnn(-c2ccc(OC)cc2)n1)C(=O)N[C@@H](CO)C(N)=O` (Ac-LTFK(Methacryloyl)RY[Trp(6-Cl)]RQLK(Tetrazole5CO(2-(4-MeOPh)))S-NH2): the Drug uptake result was “Active”.

In another data set the target is E3 ubiquitin-protein ligase Mdm2 (Homo sapiens, UniProt Q00987). As to the kind of experiment: Inhibition of human GST-tagged Mdm2 expressed in Escherichia coli harboring integrated p53-Mmd2 protein assessed as blockade of enzyme-p53 interaction by ELISA assay. In general terms: In an ELISA, binding on a coated surface is turned into a signal by an enzyme label.
Chain of E3 ubiquitin-protein ligase Mdm2 (Q00987 whole entry): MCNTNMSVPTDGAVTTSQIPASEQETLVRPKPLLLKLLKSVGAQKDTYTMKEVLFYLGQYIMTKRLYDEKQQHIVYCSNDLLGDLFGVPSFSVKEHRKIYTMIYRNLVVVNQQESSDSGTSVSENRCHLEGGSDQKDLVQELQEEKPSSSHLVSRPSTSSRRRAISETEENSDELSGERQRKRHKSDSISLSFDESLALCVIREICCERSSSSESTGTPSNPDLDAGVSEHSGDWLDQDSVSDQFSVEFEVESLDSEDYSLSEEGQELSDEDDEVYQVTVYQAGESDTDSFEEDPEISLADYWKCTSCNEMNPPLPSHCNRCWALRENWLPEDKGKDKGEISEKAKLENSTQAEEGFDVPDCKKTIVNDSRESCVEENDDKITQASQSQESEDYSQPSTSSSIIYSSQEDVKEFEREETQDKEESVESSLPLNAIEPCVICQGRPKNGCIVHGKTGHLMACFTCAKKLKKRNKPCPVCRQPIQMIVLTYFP
Turning to `CC(=O)NCCCC[C@H](NC(=O)[C@H](Cc1ccccc1)NC(=O)[C@@H](NC(=O)[C@H](CC(C)C)NC(C)=O)[C@@H](C)O)C(=O)N[C@@H](Cc1cnc[nH]1)C(=O)N[C@@H](Cc1ccc(O)cc1)C(=O)N[C@@H](Cc1c[nH]c2ccccc12)C(=O)N[C@@H](C)C(=O)N[C@@H](CCC(N)=O)C(=O)N[C@@H](CC(C)C)C(=O)N[C@H](C(=O)N[C@@H](CO)C(N)=O)[C@@H](C)O`, the half-maximal inhibitory concentration (IC50) is less than 10 nM.
Take `CC(=O)NCCCC[C@H](NC(=O)[C@H](CC(C)C)NC(=O)[C@H](CCC(N)=O)NC(=O)[C@H](C)NC(=O)[C@H](Cc1c[nH]c2ccccc12)NC(=O)[C@H](Cc1ccc(O)cc1)NC(=O)[C@H](Cc1cnc[nH]1)NC(=O)[C@H](CCC(=O)O)NC(=O)[C@H](Cc1ccccc1)NC(=O)[C@@H](NC(=O)[C@H](CC(C)C)NC(C)=O)[C@@H](C)O)C(=O)N[C@@H](CO)C(N)=O`: the IC50 is less than 48 nM.
Still for that read-out and setting: the result for Ac-LTFEHYWAK(Ac)LTS-NH2 reads less than 48 nM; that for Ac-LTFEHYWK(Ac)QLTS-NH2, less than 31 nM.

One may read the IC50 as the concentration that gives 50% inhibition.
